{"source": "ChEMBL document CHEMBL1158875", "about": "“Plakinidine D, a new pyrroloacridine alkaloid from two ascidians of the genus Didemnum” (J Nat Prod, 1997)", "test_system": "HCT-116", "assay": "Cytotoxicity against human HCT116 cells at 5 ug/mL", "assay_type": "functional, cell-based", "note": "Activity calls are given as the source filed them. The calls are words filed in the database; no cut-off is given here.", "data": [{"molecule": "Nc1c2c(c3nc4ccccc4c4c3c1N=C4)NCCC2=O", "values": [{"measurement": "Activity", "value": "Active"}]}]}
